Test results from patent publication US4977184A, “Bicyclic peroxides compositions for and treatment of malaria therewith” (Hoffmann-La Roche Inc., priority 1987, dated 1990).

System: Plasmodium berghey
Test: Blood schizontocidal activity in infected mice (ED50, s.c., four-fold administration)
Type: in vivo, Plasmodium berghey; male albino mice
Settings: mice infected with Plasmodium berghey, first 3 h after infection and on three subsequent days, smears D+4
Experimental: They have a pronounced blood schizontocidal activity. The activity of the substances in accordance with the invention can be determined, for example, in the animal experiment described hereinafter: Male albino mice weighing 18-20 g are used as the experimental animals. They are kept in climatized rooms at 22°-23° C. in groups of 5 animals per cage. They receive ad libitum a diet feed with low PABA content and drinking water. On the first day of the experiment (DO) the experimental animals are infected with Plasmodium berghey by intravenously injecting into each of the experimental animals 0.2 ml of heparinized blood of infected donor mice. The donor blood is diluted so that it contains 10^7 parasitized erythrocytes per 0.2 ml. In untreated control animals the parasitemia normally reaches 70-80% on the fourth day after the infection (D+4) and the experimental animals die between days +5 to +8. The substances to be tested are dissolved or suspended in distilled water or in a mixture of Tween 80, alcohol (96%) and water. Generally, in each case 0.5 ml of this solution or suspension is administered subcutaneously to groups of 5 experimental animals. The treatment is effected for the first time 3 hours after the infection as well as on the three subsequent days. Suitable dilutions of the test compounds are used for the titration of the activity. Per experiment 10 animals are treated in the same manner with the solution or suspension medium. 24 hours after the last treatment (D+4) blood smears with blood from tail veins are prepared from all animals and stained with giemsa. The average erythrocyte infection rate (parasitemia in %) in the control group as well as in the groups which have been treated with the compounds to be tested is determined by counting under the microscope. The difference in the average value of the infection rate between control group (100%) and the treated groups is calculated and expressed as the percentage reduction. The ED50 is determined mathematically from the results obtained. The ED50 in mg/kg is that dosage which, after four-fold administration, reduces to 50% the average erythrocyte infection rate in comparison to the control group. The results which have been obtained with representative members of the class of substance defined by formula I in the previously described experiment are compiled in the following Table. Moreover, the Table contains data concerning the toxicity of some of these compounds.

Structure (SMILES) | Activity ED50 (dosage which, after four-fold administration, reduces to 50% the average erythrocyte infection rate versus control)
C[C@@H]1C(=O)C[C@H]2C[C@@H]1OO[C@@]2(C)/C=C\c1cc(C(F)(F)F)nc2cc(C(F)(F)F)ccc12 [drawing 9 (1S, 4R, 5R, 8S)] | 5.4 mg/kg
C[C@H]1C(=O)C[C@@H]2C[C@H]1OO[C@]2(C)/C=C\c1cc(C(F)(F)F)nc2cc(C(F)(F)F)ccc12 [drawing 9 (1R, 4S, 5S, 8R)] | 6.2 mg/kg
CCCCCCCCC[C@]1(C)OO[C@@H]2C[C@H]1CC(=O)[C@@H]2C [(CH2)8CH3 (1R, 4S, 5S, 8R), (1R,4S,5S,8R)-4,8-dimethyl-4-nonyl-2,3-dioxabicyclo[3.3.1]nonan-7-one] | 6.0 mg/kg
CCCCCCCC/C=C/[C@]1(C)OO[C@@H]2C[C@H]1CC(=O)[C@@H]2C [CHCH(CH2)7CH3 (1R, 4R, 5S, 8R), (1R,4R,5S,8R)-4-[(E)-1-decenyl]-4.8-dimethyl-2,3-dioxabicyclo[3.3.1]nonan-7-one] | 6.2 mg/kg
C[C@@H]1C(=O)C[C@H]2C[C@@H]1OO[C@@]2(C)/C=C\c1ccc(Cl)cc1Cl [drawing 10 (1S, 4R, 5R, 8S)] | 4.6 mg/kg
CCCCCCCCCCC[C@]1(C)OO[C@H]2C[C@@H]1CC(=O)[C@H]2C [(CH2)10CH3 (1S, 4S, 5R, 8S), (1S,4S,5R,8S)-4,8-dimethyl-4-undecyl-2,3-dioxabicyclo[3.3.1]nonan-7-one] | 5.9 mg/kg
CCCCCCCCCCC[C@@]1(C)OO[C@@H]2C[C@H]1CC(=O)[C@@H]2C [(CH2)10CH3 (1R, 4R, 5S, 8R), (1R,4R,5S,8R)-4,8-dimethyl-4-undecyl-2,3-dioxabicyclo[3.3.1]nonan-7-one] | 5.2 mg/kg
CCCCCCCCCC[C@@]1(C)OO[C@@H]2C[C@H]1CC(=O)[C@@H]2C [(CH2)9CH3 (1R, 4R, 5S, 8R), (1R,4R,5S,8R)-4-decyl-4,8-dimethyl-2,3-dioxabicyclo[3.3.1]nonan-7-one] | 5.2 mg/kg
CCCCCCCCCCC[C@]1(C)OO[C@@H]2C[C@H]1CC(=O)[C@@H]2C [(CH2)10CH3 (1R, 4S, 5S, 8R), (1R,4S,5S,8R)-4,8-dimethyl-4-undecyl-2,3-dioxabicyclo[3.3.1]nonan-7-one] | 3.4 mg/kg
CCCCCCCC[C@]1(C)OO[C@@H]2C[C@H]1CC(=O)[C@@H]2C [(CH2)7CH3 (1R, 4S, 5S, 8R), (1R,4S,5S,8R)-4,8-dimethyl-4-octyl-2,3-dioxabicyclo[3.3.1]nonan-7-one] | 5.2 mg/kg
CCCCCCCC/C=C/[C@@]1(C)OO[C@@H]2C[C@H]1CC(=O)[C@@H]2C [CHCH(CH2)7CH3 (1R, 4S, 5S, 8R), (1R,4S,5S,8R)-4-[(E)-1-decenyl]-4,8-dimethyl-2,3-dioxabicyclo[3.3.1]nonan-7-one] | 4.5 mg/kg
CCCCCCCCCCC[C@@]1(C)OO[C@H]2C[C@@H]1CC(=O)[C@H]2C [(CH2)10CH3 (1S, 4R, 5R, 8S), (1S,4R,5R,8S)-4,8-dimethyl-4-undecyl-2,3-dioxabicyclo[3.3.1]nonan-7-one] | 4.6 mg/kg
CCCCCCCC[C@@]1(C)OO[C@@H]2C[C@H]1CC(=O)[C@@H]2C [(CH2)7CH3 (1R, 4R, 5S, 8R), (1R,4R,5S,8R)-4,8-dimethyl-4-octyl-2,3-dioxabicyclo[3.3.1]nonan-7-one] | 6.4 mg/kg
CCCCCCCCCC[C@]1(C)OO[C@@H]2C[C@H]1CC(=O)[C@@H]2C [(CH2)9CH3 (1R, 4S, 5S, 8R), (1R,4S,5S,8R)-4-decyl-4,8-dimethyl-2,3-dioxabicyclo[3.3.1]-nonan-7-one] | 3.4 mg/kg
CCCCCCCCC[C@@]1(C)OO[C@@H]2C[C@H]1CC(=O)[C@@H]2C [(CH2)8CH3 (1R, 4R, 5S, 8R), (1R,4R,5S,8R)-4.8-dimethyl-4-nonyl-2,3-dioxabicyclo[3.3.1]nonan-7-one] | 3.6 mg/kg

System: not listed separately
Test: Toxicity, single oral administration to mice
Settings: mouse, in vivo, p.o., no toxic symptoms at the dosage indicated, read-out: Toxicity, Dosage (no toxic symptoms observed at this amount)
From the text: The results which have been obtained with representative members of the class of substance defined by formula I in the previously described experiment are compiled in the following Table. Moreover, the Table contains data concerning the toxicity of some of these compounds.

Structure (SMILES) | NOAEL
C[C@H]1C(=O)C[C@@H]2C[C@H]1OO[C@]2(C)/C=C\c1cc(C(F)(F)F)nc2cc(C(F)(F)F)ccc12 [drawing 9] | 6000 mg/kg
CCCCCCCCCCC[C@@]1(C)OO[C@@H]2C[C@H]1CC(=O)[C@@H]2C [(CH2)10CH3 (1R, 4R, 5S, 8R), (1R,4R,5S,8R)-4,8-dimethyl-4-undecyl-2,3-dioxabicyclo[3.3.1]nonan-7-one] | 3000 mg/kg
CCCCCCCCCCC[C@]1(C)OO[C@@H]2C[C@H]1CC(=O)[C@@H]2C [(CH2)10CH3 (1R, 4S, 5S, 8R), (1R,4S,5S,8R)-4,8-dimethyl-4-undecyl-2,3-dioxabicyclo[3.3.1]nonan-7-one] | 3000 mg/kg
